This note sets out measurements from ChEMBL document CHEMBL2331387, “Chemical probes of a trisubstituted pyrrole to identify its protein target(s) in Plasmodium sporozoites” (2013).

Activity calls are given as the source filed them. The calls are words filed in the database; no cut-off is given here. Some results are limits rather than exact numbers.

For assay [1], the system named is Plasmodium berghei. Description: Antimalarial activity against sporozoite stage of Plasmodium berghei infected in human HepG2 cells assessed as inhibition of sporozoite infectivity at 10 uM after 40 hrs. It is filed as functional, organism-based.
In assay [2] the test system is Plasmodium berghei. Put plainly: Antimalarial activity against sporozoite stage of Plasmodium berghei infected in human HepG2 cells assessed as inhibition of sporozoite infectivity at 2 uM after 40 hrs. It is filed as functional.

Broadly, the inhibition is how much of the control response was suppressed. For `O=C(CCCC[C@@H]1SC[C@@H]2NC(=O)N[C@@H]21)NCCOCCOCCOCCOCCC(=O)NCCN1CCC(c2cc(-c3ccncc3)c(-c3ccc(F)cc3)[nH]2)CC1`, the inhibition result in assay [1] and in assay [2] was “inactive” throughout.
As for `CN1CCC(c2cc(-c3ccncc3)c(-c3ccc(F)cc3)[nH]2)CC1`, in assay [2] (HepG2, 40 h), the inhibition at 2 µM is greater than 90%.
For `NCCN1CCC(c2cc(-c3ccncc3)c(-c3ccc(F)cc3)[nH]2)CC1`, the inhibition entry in assay [1] is “Active”.
As to `O=C(CCCCCNC(=O)CCCC[C@@H]1SC[C@@H]2NC(=O)N[C@@H]21)NCCCCCC(=O)NCCN1CCC(c2cc(-c3ccncc3)c(-c3ccc(F)cc3)[nH]2)CC1`, the inhibition result in assay [1] and in assay [2] was “inactive” in each case.
In the case of `Fc1ccc(-c2[nH]c(C3CCNCC3)cc2-c2ccncc2)cc1`, the inhibition result in assay [1] is “Active”.
